According to patent publication US11008325B2, “Inhibitors of cancer invasion, attachment, and/or metastasis” (VIRGINIA COMMONWEALTH UNIVERSITY, priority 2016, dated 2021):

Experiments:
U1242 cells = test: Proteome Profiler Human Protease Array of conditioned media after radiation; assay type: cell-based; conditions: 50 μM PDZ1i 2 hrs prior to radiation
Method: FIGS. 10A-10L, PDZ1i inhibits key invasion proteins. U1242 cells were treated with either DMSO or 50 μM PDZ1i 2 hrs prior to radiation in serum-free media. After 48 hrs, media was collected analyzed via the Proteome Profiler Human Protease Array Kit (R&D Systems). Relative protein amounts of the indicated proteins were quantified via ImageJ. FIG. 10A, MMP1; FIG. 10B, MMP2; FIG. 10C, MMP3; FIG. 10D, MMP8; FIG. 10E, MMP9; FIG. 10F, MMP13; FIG. 10G. Cathepsin A; FIG. 10H, Cathepsin B; FIG. 10I, Cathepsin C; FIG. 10J, Cathepsin S; FIG. 10K, Cathepsin V; FIG. 10L, ASAM9.
Radiation can enhance the release of important enzymes, including those involved in invasion such as the matrix metalloproteinase family (MMP). We therefore determined if PDZ1i could affect the secretion of invasion-related proteins following radiation therapy. U1242 cells were treated for 2 hours prior to radiation therapy, and their media collected after 48 hours. […]
CM was harvested from an overnight culture of plated cells in serum-free DMEM+F12 media, filtered with […] filters and further concentrated 10-fold on an Amicon Ultra centrifugal filter—3K (Millipore, Billerica, Mass.). Protein levels were analyzed via the Proteome Profiler Human Protease Array Kit (R&D Systems, Minneapolis, Minn.). Relative quantification was performed by densitometry evaluation. X-ray films were scanned and analyzed with ImageJ software (NIH).

U87 cells [1] = test: clonogenic radiosurvival (colony formation); assay type: cell-based, human; conditions: 50 μM PDZ1i 2 h prior to radiation, 14 d
Method: (§1) FIGS. 8A-8D. PDZ1i produces similar effects to mda-9/syntenin knockdown post-radiation. FIG. 8A. ImPHFA and U87 cells were treated with 50 μM PDZ1i 2 h prior to radiation and analyzed for colony formation after 14 d. FIG. 8B. U87 cells were treated with 50 μM PDZ1i 2 h prior to radiation and analyzed via MTT assay after 24 h. FIG. 8C. U87 cells were pretreated with 50 μM PDZ1i 2 h prior to radiation and subsequently seeded in a trans-well Matrigel invasion assay and stained after 24 h. Invasion was quantified from 5 random fields in FIG. 8D. Error bars=±s.d. *p<0.05, **p<0.01.
(§2) Clonogenic radiosurvival experiments were carried out as described previously (4,7). Briefly, cells were diluted, seeded on 6-cm dishes, and after the cells attached, treated with DMSO or PDZ1i (12.5, 25, or 50 μM) in the medium for 2 h before irradiation. Cells were incubated overnight, and the medium changed to nondrug containing medium 16 h postirradiation. Cells were incubated further for 14 days, stained with 2% Giemsa solution, and colonies consisting of 50 or more were counted. Cell viability was assessed through MTT analysis as described previously (8).

ImPHFA cells = test: clonogenic radiosurvival (colony formation); assay type: cell-based, human; conditions: 50 μM PDZ1i 2 h prior to radiation, 14 d
Method: as §1, §2

U87 cells [2] = test: MTT assay after radiation; assay type: cell-based, human; conditions: radiation plus PDZ1i versus radiation plus DMSO
Method: as §1, §2

cancer cells = test: toxicity to cultured cells; assay type: cell-based, human
[3] = system: Mcl-1, Bcl-xL, Bid, MT1-MMP-PEX domain, IL20R, RKIP, Jnk2, Ubc13, SIAH1, Ship2-SAM; test: binding to panel of protein-protein interaction proteins; conditions: 50 μM, 1:1 ligand/protein ratio
Method: In addition, the molecules are tested against a series of proteins available in the laboratory involved in protein-protein interactions including Mcl-1, Bcl-xL, Bid, MT1-MMP-PEX domain, IL20R, RKIP, Jnk2 (JIP-binding site Met labeled), Ubc13, SIAH1, and Ship2-SAM. […] In designing compounds using elements of the libraries, particular emphasis will be put on drug-like properties of the compounds. […] Additionally, the MTD and PK properties on selected compounds prior to their eventual evaluations in vivo in will be addressed. Preliminarily, PK studies with 113B7 indicate that the compound is stable and long-lived with nearly 100% bioavailability when administered IP (FIG. 53).

T98G cells = test: trans-well Matrigel invasion assay; assay type: cell-based, human; conditions: PDZ1i versus DMSO
Method: (§3) FIGS. 7A-7B. FIG. 7A. Im-PHFA, primary immortal human fetal astrocyte cells were infected with an MDA-9/Syntenin expression plasmid carrying adenovirus. 48 hrs post-infection both the control and MDA-9/Syntenin overexpressing cells were treated with DMSO or PDZ1i followed by seeding in a trans-well Matrigel invasion assay and stained after 24 hrs. FIG. 7B. T98G and U87 were treated with DMSO or PDZ1i and seeding in a trans-well Matrigel invasion assay and stained after 24 hrs. Invasion was quantified from 4 random fields. Data represents fold changes and average±S.D.
(§4) Invasion was measured using 24-well BioCoat cell culture inserts (BD Biosciences, Bedford, Mass.) with an 8-μm-porosity polyethylene terephthalate membrane coated with Matrigel Basement Membrane Matrix (100 μg/cm^2). Briefly, the Matrigel was allowed to rehydrate for 2 h at room temperature by adding warm, serum-free DMEM. The wells of the lower chamber were filled with medium containing 10% fetal bovine serum. […] Cells remaining on the upper surface of the filters were removed by wiping with a cotton swab, and invasion was determined by counting the cells that migrated to the lower side of the filter using at least 5 fields per insert at 100× magnification. […] Data from triplicate experiments were expressed as mean±95% confidence interval (CI).

[4] = system: Im-PHFA cells overexpressing MDA-9/Syntenin; test: trans-well Matrigel invasion assay; assay type: cell-based, human; conditions: after MDA-9/Syntenin overexpression
Method: as §3, §4

MMP-2 and MMP-9 = test: western blotting and gelatin zymography of conditioned media; assay type: cell-based; conditions: 50 μM, 24 h
U87 cells [5] = test: trans-well Matrigel invasion assay; assay type: cell-based, human
Method: as §3
FIGS. 8A-8D. PDZ1i produces similar effects to mda-9/syntenin knockdown post-radiation. FIG. 8A. ImPHFA and U87 cells were treated with 50 μM PDZ1i 2 h prior to radiation and analyzed for colony formation after 14 d. […] U87 cells were treated with 50 μM PDZ1i 2 h prior to radiation and analyzed via MTT assay after 24 h. […] Invasion was quantified from 5 random fields in FIG. 8D. […]
Invasion was measured using 24-well BioCoat cell culture inserts (BD Biosciences, Bedford, Mass.) with an 8-μm-porosity polyethylene terephthalate membrane coated with Matrigel Basement Membrane Matrix (100 μg/cm^2). […] Cells remaining on the upper surface of the filters were removed by wiping with a cotton swab, and invasion was determined by counting the cells that migrated to the lower side of the filter using at least 5 fields per insert at 100× magnification. […]

Cc1cc(NC(=O)c2nc3[nH]c4c(c(=O)n3n2)CCC4)c(C)cc1NC(=O)CCc1nnc(-c2ccccc2)o1 [113B7, N-(2,5-dimethyl-4-(3-(5-phenyl-1,3,4-oxadiazol-2-yl)propanamido)phenyl)-8-oxo-5,6,7,8-tetrahydro-4H-cyclopenta[d][1,2,4]triazolo[1,5-a]pyrimidine-2-carboxamide]
radiation gains in Cathepsin family members and ADAM9 (U1242 cells): eliminated these gains | secreted MMP levels (MMP2, MMP9) after radiation (U1242 cells; media after 48 hrs): reduced the levels | radiosensitivity (colony formation) (U87 cells [1]): markedly more radiosensitivity | radiosensitivity (colony formation) (ImPHFA cells): did not further radiosensitize | proliferation following radiation (U87 cells [2]): significantly decreased | toxicity to primary normal cells and cancer cells (cancer cells): non-toxic | toxicity (cancer cells; tested at 50 μM): did not show any toxicity | cytotoxicity (cancer cells; tested up to 20 μM): did not show any significant cytotoxicity | binding to protein-protein interaction panel [3]: no appreciable binding | invasion (T98G cells): effectively inhibited invasion | MDA-9/Syntenin-induced invasion [4]: effective in inhibiting MDA-9/Syntenin-induced invasion | MMP-2 and MMP-9 protein and activity level (MMP-2 and MMP-9): downregulates | radiation-induced invasion gains (U87 cells [5]; 50 μM PDZ1i 2 h prior to 2 and 5 Gy): abolished these invasion gains | invasion (U87 cells [5]; PDZ1i versus DMSO): effectively inhibited invasion
